Results reported in patent US10450260B2, “NO- and H2S-releasing compounds” (RESEARCH FOUNDATION OF THE CITY UNIVERSITY OF NEW YORK, priority 2011, dated 2019).
Like-named read-outs stand apart in the source and are kept apart here.

Key:
[1] = test system: HT-29 human colon cancer cells; experiment: MTT cell growth inhibition, HT-29; assay type: cell-based; details: HT-29 cells; for IC50: Homo sapiens
PGE2 = PGE2 in rat paw exudates; assay type: in vivo; details: for PGE2 levels in the paw exudate versus vehicle (FIG. 2B): P<0.01, four rats in each group
Procedure: Rats were euthanized by asphyxiation in a CO2 chamber. […] The absorbance at 412 nm was measured after 1 h incubation at room temperature. […] Proteins were determined by Biorad assay.
Proteins were determined by Biorad assay.

TNF-α = experiment: Plasma TNF-α enzyme immunoassay; assay type: in vivo, rat; details: for plasma TNF-α (FIG. 3): P<0.01 vs vehicle, P<0.01 vs ASA; for plasma TNFα concentration: rats, equimolar oral doses: ASA 180 (1 mmol/kg), NOSH-ASA 477, naproxen 80, NOSH-naproxen 188, sulindac 200, NOSH-sulindac 467 mg/kg, control 11±0.3
Procedure: Fresh samples of blood from the animals were taken by cardiac puncture into heparin-containing vials. The determination of plasma TNF-α was carried out by an enzyme immunoassay kit from R&D systems (Minneapolis, Minn.). Briefly, each sample (50 μL) was incubated with antibodies specific for rat TNF-α and washed three times with assay buffer. An enzyme-linked polyclonal antibody specific for rat TNF-α conjugated to horseradish peroxidase was then added to the wells. Following washing of unbound antibody-enzyme reagent, a substrate solution (containing tetramethylbenzidine, TMB, plus hydrogen peroxide) was added to the wells. The enzyme reaction yielded a blue product (oxidized TMB) that turned yellow when the stop solution (dilute hydrochloride acid) was added. The intensity of the color was determined by measuring the OD of the yellow color in a standard ELISA plate reader at 450 nm. Sensitivity of this TNF-α assay was determined by adding two standard deviations to the mean optical density value of 20× zero standard replicates and calculating the corresponding concentration. The kit contains all reagents and standards needed for the TNF-α sensitivity assay. The results are expressed as pg/mL.
This was done by an enzyme immunoassay kit from R&D systems (Minneapolis, Minn.) following the protocol described by the manufacturer. Briefly, fresh blood (50 μL) was incubated with antibodies specific for rat TNF-α and washed three times with assay buffer. An enzyme-linked polyclonal antibody specific for rat TNF-α conjugated to horseradish peroxidase was then added to the wells. Following washing of unbound antibody-enzyme reagent, a substrate solution (containing tetramethylbenzidine, TMB, plus hydrogen peroxide) was added to the wells. The enzyme reaction yielded a blue product (oxidized TMB) that turned yellow when the stop solution (dilute hydrochloride acid) was added. The intensity of this was measured at 450 nm. Sensitivity of this TNF-α assay was determined by adding two standard deviations to the mean optical density value of 20× zero standard replicates and calculating the corresponding concentration.

[2] = test system: carrageenan-induced paw edema; experiment: Carrageenan-induced rat paw edema; assay type: in vivo; details: for paw volume versus vehicle treated rats (FIG. 2A): P<0.05, four rats in each group; for anti-inflammatory effect on paw swelling compared with parent NSAID: equimolar oral doses (Example 12)
Procedure: Carrageenan (1%, 100 μL, suspended in sterile saline solution, type IV lamda; Sigma-Aldrich) was subcutaneously injected into the plantar surface of the right hind paw in rat following the protocol described by Winter et al., Proceedings of the Society for Experimental Biology and Medicine 1962, 111:544-547. Paw volume was measured using a water displacement plethysmometer (model 520; IITC/Life Sciences Instruments, Woodland Hills, Calif.) before carrageenan injection and thereafter at 1-h intervals for 6 h. The paw volume measured just before carrageenan injection was used as the control volume. Data are expressed as the change in paw volume (milliliters) at each time point.
Carrageenan, type IV lambda (1%, 100 μL suspended in sterile saline solution), from Sigma Chemicals (St. Louis, Mo.) was subcutaneously injected into the plantar surface of the right hind paw in rat following the protocol described by Winter et al., Proceedings of the Society for Experimental Biology and Medicine 1962, 111:544-547. Paw volume was measured using a water displacement plethysmometer (Model 520, IITC/Life Sciences Instruments, Woodland Hills, Calif.) before carrageenan injection and thereafter at 1 hour intervals for 5 hours. The paw volume measured just prior to carrageenan injection was used as the control volume. Data are expressed as the change in paw volume (mL) at each time point.

HT-29 colon cancer cells = experiment: Cell cycle analysis, PI staining and flow cytometry; assay type: cell-based, human
Procedure: Growth inhibition was measured using a colorimetric MTT assay kit (Roche, Indianapolis, Ind.). Proliferation (PCNA) was assessed using an ELISA kit from Calbiochem, (La Jolla, Calif.). Cell cycle phase distributions and apoptosis of control and treated cells were determined as previously described. All methods are described in Chattopadhyay et al., Biochemical Pharmacology, 2012, 83(6), 715-722.

LPS-induced fever = experiment: Anti-pyretic activity, LPS-induced fever; assay type: in vivo, rat; details: 2-4 hours after LPS injection
Procedure: To induce fever, LPS (50 μg/kg, Sigma, St. Louis, Mo., USA) was administered intraperitoneally to the animals an hour before the administration of test drugs as described previously (Pinto L et al., Pharm Pharmacol Communication 1988: 4:502-505). Rectal temperature was measured by inserting a lubricated thermistor probe (external diameter: 3 mm) 2.8 cm into the rectum of the animal. […] Rectal temperatures were taken every hour for 5 hours.

gastric mucosa = experiment: Gastric damage, ulcer index; assay type: in vivo, rat; details: rats, oral gavage, equimolar doses: ASA 180, NOSH-ASA 477, naproxen 80, NOSH-naproxen 188, sulindac 200, NOSH-sulindac 467 mg/kg; 6 h post-administration; vehicle UI=0
Procedure: The institutional animal care and research committees approved all experimental procedures described herein. Male Wistar rats (4 per group) weighing 180-200 g were obtained from Charles River Laboratories International (Wilmington, Mass.). The rats were fed standard laboratory chow and water. Rats were fasted for 48 h with free access to drinking water. […] Stomachs were then rapidly removed, cut along the greatest curvature, and rinsed with ice-cold distilled water. […] Tissues from stomachs were excised and processed for measurement of Prostaglandin E2 (PGE2), malondialdehyde (MDA) and Superoxide dismutase (SOD) activity.

HT-29 cells = experiment: LDH release assay; assay type: cell-based, human
Procedure: For determination of lactate dehydrogenase (LDH) activity, HT-29 cells (1×10^5 cells/well) were incubated in 96-well plates with different concentrations of NOSH-1. After incubation for 2, 4, 8, 12 and 24 h, LDH activity in the supernatant was assessed using the LDH Cytotoxicity Assay Kit (Cayman Chemical Ann Arbor, Mich.), according to the manufacturer's instructions. Cytotoxicity was calculated as a percentage based on the LDH activity released from cells that had been treated with NOSH-1 compared with LDH activity from cultures incubated with Triton X-100. The % of LDH release was determined using the formula (E−C)/(T−C)×100, where E is the experimental absorbance of cell cultures, C is the control absorbance of cell-free culture medium, and T is the absorbance corresponding to the maximal (100%) LDH release of Triton-lysed cells.^1

For `CC(=O)Oc1ccccc1C(=O)O` [ASA, aspirin, reference compound], the IC50 ([1]; 48 h, read-out: IC50, 48 h) was 2500 µM, the IC50 ([1]; 72 h, read-out: IC50, 72 h) was 2000 µM and the “PGE2 levels in the paw exudate versus vehicle (FIG. 2B)” value (PGE2) was “significant reduction in PGE2 levels”. The “PGE2 levels in paw exudate” value (PGE2; aspirin 0.21 mmol/kg, control 82±2 pg/mg) was 12±3 pg/mg protein, the “increase of plasma TNF-α concentration over control” value (TNF-α; ASA 0.56 mmol/kg) was “about 20 fold” and the “plasma TNF-α concentration” value (TNF-α; ASA 0.56 mmol/kg, control 10±1) was 200 ± 10 pg/mL. For the same molecule, the “increase of plasma TNFα concentration over control” value (TNF-α; ASA 1 mmol/kg) was “about 20 fold”, the “plasma TNF-α (FIG. 3)” value (TNF-α) was “significant rise” and the “plasma TNFα concentration” value (TNF-α) was 190 ± 5 pg/mL. The “change in paw volume ΔV” value ([2]; ASA 0.56 mmol/kg, after 6 hours) was roughly 0.35 mL, the “change in paw volume ΔV” value ([2]; ASA 0.56 mmol/kg, at 1 hour) was 0.4 mL and the “change in paw volume ΔV” value ([2]; ASA 0.56 mmol/kg, over the next 2 hours (after 1 h)) was roughly 0.35 mL. The “paw volume versus vehicle treated rats (FIG. 2A)” value [2] was “significant reduction in paw volume at all time points”.

With `O=C(CCCO[N+](=O)[O-])Oc1ccccc1C(=O)Oc1ccc(-c2cc(=S)ss2)cc1` [NOSH-1, 4-(3-thioxo-3H-1,2-dithiol-5-yl)phenyl 2-((4-(nitrooxy)butanoyl)oxy)benzoate] the “cell population in G2/M phase” value (HT-29 colon cancer cells; 1×IC50, 24 hours, control 26.9±2.2) was 15.4±2.6%, the “cell population in S phase” value (HT-29 colon cancer cells; 1×IC50, 24 hours, control 30.2±2.3%) was 22.6±1.3% and the “cell population in G0/G1 phase” value (HT-29 colon cancer cells; 1×IC50, 24 hours, control 42.9±2%) was 62.0±2.3%. The “cell population in G0/G1 phase” value (HT-29 colon cancer cells; 2×IC50, 24 hours) was 74.2±1.2%, the “cell population in G2/M phase” value (HT-29 colon cancer cells; 2×IC50, 24 hours) was 9.5±1.8% and the “cell population in S phase” value (HT-29 colon cancer cells; 2×IC50, 24 hours) was 16.3±1.2. For the same molecule, the “Potency enhancement (ratio of IC50 values ASA/NOSH-1), 48 h” value ([1]; 48 h) was ~125,000 fold, the “Potency enhancement (ratio of IC50 values ASA/NOSH-1), 72 h” value ([1]; 72 h) was ~250,000 fold and the IC50 ([1]; 48 h, read-out: IC50, 48 h) was 0.0197 ± 0.0033 µM. For the same molecule, the IC50 ([1]; 72 h, read-out: IC50, 72 h) was 0.0077 ± 0.0022 µM, the “reduction of LPS-induced fever compared with parent NSAID” value (LPS-induced fever) was “appeared to be better in reducing LPS-induced fever” and the PGE2 levels in paw exudate (PGE2; NOSH-1 0.21 mmol/kg) was 42 ± 3 pg/mg. The PGE2 levels in paw exudate (PGE2; NOSH-1 0.52 mmol/kg) was 21 ± 4 pg/mg, the “PGE2 levels in the paw exudate versus vehicle (FIG. 2B)” value (PGE2) was “significant reduction in PGE2 levels” and the “plasma TNF-α concentration” value (TNF-α; NOSH-1 0.21 mmol/kg) was 55 ± 2 pg/mL. For the same molecule, the “plasma TNF-α concentration” value (TNF-α; NOSH-1 0.52 mmol/kg) was 40 ± 3 pg/mL, the “plasma TNF-α (FIG. 3)” value (TNF-α) was “significantly less” and the “plasma TNFα concentration” value (TNF-α) was 75 ± 1 pg/mL. For the same molecule, the “gastric damage score, ulcer index (UI)” value (gastric mucosa) was 2, the LDH release (HT-29 cells; 4-times its IC50, 24 hours) was “less than 10%” and the LDH release (HT-29 cells; 4-times its IC50, shorter durations (2, 4, 6, 8 hours)) was 1-5%. For the same molecule, the LDH release (HT-29 cells; at its IC50, shorter durations (2, 4, 6, 8 hours)) was 0.5-4%, the “paw volume versus vehicle treated rats (FIG. 2A)” value [2] was “significant reduction in paw volume at all time points” and the “change in paw volume ΔV” value ([2]; high dose NOSH-1 0.52 mmol/kg, after 1-2 hours) was 0.45 mL. For the same molecule, the “change in paw volume ΔV” value ([2]; high dose NOSH-1 0.52 mmol/kg, over the next 4 hours (to 6 h)) was 0.35 mL, the “change in paw volume ΔV” value ([2]; low dose NOSH-1 0.21 mmol/kg, after 1 hour) was 0.5 mL and the “change in paw volume ΔV” value ([2]; low dose NOSH-1 0.21 mmol/kg, by 3 hours) was 0.6 mL. The “change in paw volume ΔV” value ([2]; low dose NOSH-1 0.21 mmol/kg, over the next 3 hours (to 6 h)) was roughly 0.4 mL.

`CC(C(=O)Oc1ccc(-c2cc(=S)ss2)cc1)c1ccc2cc(OC(=O)CCCO[N+](=O)[O-])ccc2c1` (centres unmarked) [NOSH-7, 6-(1-oxo-1-(4-(3-thioxo-3H-1,2-dithiol-5-yl)phenoxy)propan-2-yl)naphthalen-2-yl 4-(nitrooxy)butanoate] was tested, and the “reduction of LPS-induced fever compared with parent NSAID” value (LPS-induced fever) was “appeared to be better in reducing LPS-induced fever”, the “plasma TNFα concentration” value (TNF-α) was 48 ± 2 pg/mL and the “gastric damage score, ulcer index (UI)” value (gastric mucosa) was 2. For the same molecule, the “anti-inflammatory effect on paw swelling compared with parent NSAID” value [2] was “even lower inflammatory response compared to naproxen”.

`CC1=C(CC(=O)Oc2ccc(OC(=O)CCCO[N+](=O)[O-])c(C(=O)Oc3ccc(-c4cc(=S)ss4)cc3)c2)c2cc(F)ccc2/C1=C/c1ccc([S+](C)[O-])cc1` (centres unmarked) [NOSH-8, (E)-4-(3-thioxo-3H-1,2-dithiol-5-yl)phenyl 5-(2-(5-fluoro-2-methyl-1-(4-(methylsulfinyl)benzylidene)-1H-inden-3-yl)acetoxy)-2-((4-(nitrooxy)butanoyl)oxy)benzoate] was tested, and the “plasma TNFα concentration” value (TNF-α) was 50 ± 3 pg/mL, the “gastric damage score, ulcer index (UI)” value (gastric mucosa) was 10 and the “anti-inflammatory effect on paw swelling compared with parent NSAID” value [2] was “the same anti-inflammatory response as sulindac”.

In the case of `CC1=C(CC(=O)O)c2cc(F)ccc2/C1=C\c1ccc([S+](C)[O-])cc1` (centres unmarked) [sulindac, reference compound], the “plasma TNFα concentration” value (TNF-α) is reported as 230 ± 5 pg/mL and the “gastric damage score, ulcer index (UI)” value (gastric mucosa) is reported as 130.
